Assay results from patent publication US20240425523A1, “Compounds for the Degradation of EGFR Kinase” (Beigene Switzerland GMBH, priority 2023, published 2024).
pIC50: −log10 of the molar value.

Columns and labels:
Assay type in all cases: cell-based
[1] = biological target: T1, p-EGFR L858R (BaF3-L858R cells) (Homo sapiens, UniProt P00533, L858R); assay: Cell p-EGFR inhibition assay, HTRF, BaF3-L858R cells; conditions: 16 h treatment; for Imax (%): maximum percentage of pEGFR inhibition; for pIC50: pEGFR inhibition
T1 construct: host or cells: BaF3
Procedure, shortened: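 BaF3-L858R cells treated 16 h at 37 °C, 5% CO2 with compound from 10 uM top, 5-fold dilutions, 8 doses, in 0.1% DMSO medium. Lysates read overnight by HTRF p-EGFR antibodies; IC50 fitted to four-parameter curve against DMSO high control.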

[2] = biological target: p-EGFR Del19/C797S (H1975-clone #23 cells) (Homo sapiens, UniProt P00533); assay: Cell p-EGFR inhibition assay, HTRF, H1975-clone#23 (DEL19/C797S) cells; conditions: 16 h treatment; for Imax (%): maximum percentage of pEGFR inhibition; for pIC50: pEGFR inhibition
Procedure, shortened: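 Phospho-EGFR read by overnight HTRF on lysates, normalized to DMSO-treated high control; IC50, Hill slope and Imax fitted. Compounds were applied for 16 h (10 uM top, 5-fold steps, 8 doses) to an H1975 single clone carrying only exogenous Del19/C797S EGFR after sgRNA knockout of endogenous copies.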

[3] = biological target: T2, EGFR L858R (BaF3-L858R cells) (Homo sapiens, UniProt P00533, L858R); assay: Cell degradation of EGFR, HTRF assay, BaF3-L858R cells; conditions: 16 h treatment; for DC50: EGFR degradation; for Dmax: maximum percentage of degradation
T2 construct: host or cells: BaF3
Procedure, shortened: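 BaF3-L858R cells treated 16 h at 37° C, 5% CO2 with compound (top 10 uM final, 5-fold, 8 doses, 0.1% DMSO). DC50 from four-parameter fit; Dmax is maximum percent degradation.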

[4] = biological target: T3, EGFR-L858R/C797S (H1975-clone #8 cells) (Homo sapiens, UniProt P00533, C797S/L858R); assay: Cell degradation of EGFR, HTRF assay, H1975-clone#8 (L858R/C797S) cells; conditions: 16 h treatment; for DC50: EGFR degradation; for Dmax: maximum percentage of degradation
T3 construct: expressed in transfected cells; host or cells: H1975 (endogenous EGFR knocked out, clone #8)

| Compound | Imax (%) [1] | pIC50 [1] | Imax (%) [2] | pIC50 [2] | DC50 [3] | Dmax [3] | DC50 [4] | Dmax [4] |
| --- | --- | --- | --- | --- | --- | --- | --- | --- |
| Cc1cc2cc(n1)-c1c(C)nn(C)c1OC[C@H]1CC[C@H](C1)CN1/C(=N/C2=O)Nc2ccc(N3CCN(C4CCN(c5cc(F)c([C@H]6CCC(=O)NC6=O)c(F)c5)CC4)C(=O)C3)cc21 [Example 164, (R)-3-(2,6-difluoro-4-(4-(2-oxo-4-((7^1R,7^3S,E)-1^1,1^3,2^6-trimethyl-3-oxo-5^2,5^3-dihydro-1^1H,5^1H-9-oxa-4-aza-5(2,1)-benzo[d]imidazola-2(2,4)-pyridina-1(4,5)-pyrazola-7(1,3)-cyclopentanacyclononaphane-5^6-yl)piperazin-1-yl)piperidin-1-yl)phenyl)piperidine-2,6-dione] | 94.91% | 8.73 | 96.95% | 9.60 | 2.79 nM | 92.7% | 1.19 nM | 88.7% |
| COC[C@H]1CN(c2cc3c(cc2F)N/C2=N\C(=O)c4cc(C)nc(c4)-c4c(C)nn(C)c4OC[C@H]4CC[C@H](C4)CN23)CCN1C1CCN(c2cc(F)c([C@H]3CCC(=O)NC3=O)c(F)c2)CC1 [Example 165, (R)-3-(2,6-difluoro-4-(4-((R)-4-((7^1R,7^3S,E)-5^5-fluoro-1^1,1^3,2^6-trimethyl-3-oxo-5^2,5^3-dihydro-1^1H,5^1H-9-oxa-4-aza-5(2,1)-benzo[d]imidazola-2(2,4)-pyridina-1(4,5)-pyrazola-7(1,3)-cyclopentanacyclononaphane-5^6-yl)-2-(methoxymethyl)piperazin-1-yl)piperidin-1-yl)phenyl)piperidine-2,6-dione] | 93.3% | 8.32 | 94.62% | 8.87 | 3.32 nM | 91.1% | 4.45 nM | 88.7% |
| Cc1cc2cc(n1)-c1c(C)nn(C)c1OC[C@H]1CC[C@H](C1)CN1/C(=N/C2=O)Nc2ccc(N3CCC(C)(CN(C)C4CCN(c5cc(F)c([C@H]6CCC(=O)NC6=O)c(F)c5)CC4)CC3)cc21 [Example 168, (R)-3-(2,6-difluoro-4-(4-(methyl((4-methyl-1-((7^1R,7^3S,E)-1^1,1^3′2^6-trimethyl-3-oxo-5^2′5^3-dihydro-1^1H,5^1H-9-oxa-4-aza-5(2,1)-benzo[d]imidazola-2(2,4)-pyridina-1(4,5)-pyrazola-7(1,3)-cyclopentanacyclononaphane-5^6-yl)piperidin-4-yl)methyl)amino)piperidin-1-yl)phenyl)piperidine-2,6-dione] | 100.64% | 8.06 | 102.22% | 8.59 | 2.96 nM | 80.9% | 3.07 nM | 81.1% |
| COC[C@@H]1CN(c2cc3c(cc2F)N/C2=N\C(=O)c4cc(C)nc(c4)-c4c(C)nn(C)c4OC[C@H]4CC[C@H](C4)CN23)CCN1C1CCN(c2cc(F)c([C@H]3CCC(=O)NC3=O)c(F)c2)CC1 [Example 169, (R)-3-(2,6-difluoro-4-(4-((S)-4-((7^1R,7^3S,E)-5^5-fluoro-1^1,1^3,2^6-trimethyl-3-oxo-5^2,5^3-dihydro-1^1H,5^1H-9-oxa-4-aza-5(2,1)-benzo[d]imidazola-2(2,4)-pyridina-1(4,5)-pyrazola-7(1,3)-cyclopentanacyclononaphane-5^6-yl)-2-(methoxymethyl)piperazin-1-yl)piperidin-1-yl)phenyl)piperidine-2,6-dione] | 100.12% | 8.06 | 102.95% | 8.60 | 2.62 nM | 86.5% | 2.81 nM | 91.6% |
| COC[C@H]1CN(c2cc3c(cc2C)N/C2=N\C(=O)c4cc(C)nc(c4)-c4c(C)nn(C)c4OC[C@H]4CC[C@H](C4)CN23)CCN1C1CCN(c2cc(F)c([C@H]3CCC(=O)NC3=O)c(F)c2)CC1 [Example 172, (R)-3-(2,6-difluoro-4-(4-((R)-2-(methoxymethyl)-4-((7^1R,7^3S,E)-1^1,1^3,2^6° 5^5-tetramethyl-3-oxo-5^2,5^3-dihydro-1^1H,5^1H-9-oxa-4-aza-5(2,1)-benzo[d]imidazola-2(2,4)-pyridina-1(4,5)-pyrazola-7(1,3)-cyclopentanacyclononaphane-5^6-yl)piperazin-1-yl)piperidin-1-yl)phenyl)piperidine-2,6-dione] | 100% | 8.21 | 103.44% | 8.56 | 5.09 nM | 84.8% | 0.909 nM | 85.6% |
| COC[C@@H]1CN(c2cc3c(cc2C)N/C2=N\C(=O)c4cc(C)nc(c4)-c4c(C)nn(C)c4OC[C@H]4CC[C@H](C4)CN23)CCN1C1CCN(c2cc(F)c([C@H]3CCC(=O)NC3=O)c(F)c2)CC1 [Example 173, (R)-3-(2,6-difluoro-4-(4-((S)-2-(methoxymethyl)-4-((7^1R,7^3S,E)-1^1,1^3,2^6,5^5-tetramethyl-3-oxo-5^2,5^3-dihydro-1^1H,5^1H-9-oxa-4-aza-5(2,1)-benzo[d]imidazola-2(2,4)-pyridina-1(4,5)-pyrazola-7(1,3)-cyclopentanacyclononaphane-5^6-yl)piperazin-1-yl)piperidin-1-yl)phenyl)piperidine-2,6-dione] | 98.39% | 7.94 | 103.01% | 8.40 | 4.28 nM | 95.2% | 4.31 nM | 91.4% |
| CCc1nn(C)c2c1-c1cc(cc(C)n1)C(=O)/N=C1\Nc3ccc(N4CCN(C5CCN(c6cc(F)c([C@H]7CCC(=O)NC7=O)c(F)c6)CC5)[C@@H](COC)C4)cc3N1C[C@@H]1CC[C@H](CO2)C1 [Example 175, (R)-3-(4-(4-((R)-4-((7^1R,7^3S,E)-1^3-ethyl-1^1,2^6-dimethyl-3-oxo-5^2,5^3-dihydro-1^1H,5^1H-9-oxa-4-aza-5(2,1)-benzo[d]imidazola-2(2,4)-pyridina-1(4,5)-pyrazola-7(1,3)-cyclopentanacyclononaphane-5^6-yl)-2-(methoxymethyl)piperazin-1-yl)piperidin-1-yl)-2,6-difluorophenyl)piperidine-2,6-dione] | 98.51% | 8.55 | 100.72% | 8.89 | 4.07 nM | 88.7% | 7.25 nM | 83.9% |
| COC[C@H]1CN(c2ccc3c(c2)N2C[C@@H]4CC[C@H](COc5c(c(C)nn5C)-c5cc(cc(Cl)n5)C(=O)/N=C/2N3)C4)CCN1C1CCN(c2cc(F)c([C@H]3CCC(=O)NC3=O)c(F)c2)CC1 [Example 176, (R)-3-(4-(4-((R)-4-((7^1R,7^3S,E)-2^6-chloro-1^1,1^3-dimethyl-3-oxo-5^2,5^3-dihydro-1^1H,5^1H-9-oxa-4-aza-5(2,1)-benzo[d]imidazola-2(2,4)-pyridina-1(4,5)-pyrazola-7(1,3)-cyclopentanacyclononaphane-5^6-yl)-2-(methoxymethyl)piperazin-1-yl)piperidin-1-yl)-2,6-difluorophenyl)piperidine-2,6-dione] | 94.16% | 7.82 | 101.78% | 8.44 | 8.27 nM | 89% | 10.7 nM | 85.4% |
| Cc1nn(C)c2c1-c1cc(cc(Cl)n1)C(=O)/N=C1\Nc3ccc(N4CCN(C5CCN(c6cc(F)c([C@H]7CCC(=O)NC7=O)c(F)c6)CC5)CC4)cc3N1C[C@@H]1CC[C@H](CO2)C1 [Example 179, (R)-3-(4-(4-(4-((7^1R,7^3S,E)-2^6-chloro-1^1,1^3-dimethyl-3-oxo-5^2,5^3-dihydro-1^1H,5^1H-9-oxa-4-aza-5(2,1)-benzo[d]imidazola-2(2,4)-pyridina-1(4,5)-pyrazola-7(1,3)-cyclopentanacyclononaphane-5^6-yl)piperazin-1-yl)piperidin-1-yl)-2,6-difluorophenyl)piperidine-2,6-dione] | 99.14% | 7.84 | 100.7% | 8.55 | 5.38 nM | 90.8% | 10.6 nM | 89.6% |
| Cc1cc2cc(n1)-c1c(C)nn(C)c1OC[C@H]1CC[C@H](C1)CN1/C(=N/C2=O)Nc2ccc(N3CCN(CC4CCN(c5cc(F)c([C@H]6CCC(=O)NC6=O)c(F)c5)CC4)CC3)cc21 [Example 182, (R)-3-(2,6-difluoro-4-(4-((4-((7^1R,7^3S,E)-1^1,1^3,2^6-trimethyl-3-oxo-5^2,5^3-dihydro-1^1H,5^1H-9-oxa-4-aza-5(2,1)-benzo[d]imidazola-2(2,4)-pyridina-1(4,5)-pyrazola-7(1,3)-cyclopentanacyclononaphane-5^6-yl)piperazin-1-yl)methyl)piperidin-1-yl)phenyl)piperidine-2,6-dione] | 100.38% | 8.66 | 99.73% | 8.62 | 21.8 nM | 89.2% | 1.39 nM | 79.8% |
